US20110152166A1, “METHOD OF MODULATION OF PROTEIN PHOSPHORYLATION-DEPENDENT CONFORMATIONAL TRANSITIONS WITH LOW MOLECULAR WEIGHT COMPOUNDS” (priority 2006, published 2011)
Numbering of substitutions follows the chain as printed. Square brackets hold non-standard residues; d marks the D form. Ends that are not written are not given here. pS = N[C@@H](COP(=O)(O)O)C(=O)O

Assays:
[1] = target: T1, GST-PDK1 [Gln150Ala] (Homo sapiens, UniProt O15530, Q150A); assay: PDK1 activity assay with T308tide; assay type: biochemical; conditions: for AC50 / Max. activity: GST-PDK1 [Gln150Ala]; for activation of PDK1 mutant (in words): PDK1[Gln150Ala], 20 μM
T1 construct: different protein constructs, comprising the full length protein or the catalytic domain alone; made in house; host or cells: HEK293 cells (pEBG-2T-PDK1 mutant)
T1 sequence (O15530 1-556 Q150A): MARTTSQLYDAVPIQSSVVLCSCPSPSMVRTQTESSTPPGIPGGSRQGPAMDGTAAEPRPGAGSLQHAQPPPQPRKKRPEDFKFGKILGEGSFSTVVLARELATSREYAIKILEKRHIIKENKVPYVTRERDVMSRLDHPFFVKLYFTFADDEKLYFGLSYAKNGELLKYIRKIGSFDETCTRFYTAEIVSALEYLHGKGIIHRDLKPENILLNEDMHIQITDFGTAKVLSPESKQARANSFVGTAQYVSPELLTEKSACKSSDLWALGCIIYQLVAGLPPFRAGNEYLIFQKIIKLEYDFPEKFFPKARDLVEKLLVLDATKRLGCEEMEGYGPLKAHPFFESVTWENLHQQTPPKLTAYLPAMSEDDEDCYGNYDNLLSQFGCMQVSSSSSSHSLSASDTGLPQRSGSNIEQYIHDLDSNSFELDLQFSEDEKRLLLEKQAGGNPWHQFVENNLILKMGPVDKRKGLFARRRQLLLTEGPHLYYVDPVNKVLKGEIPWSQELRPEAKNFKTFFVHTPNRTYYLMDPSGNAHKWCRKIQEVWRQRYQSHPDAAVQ
Experimental: Protein kinase activity tests were performed essentially as previously described (Balendran et al., 2000; Biondi et al., 2000; Biondi et al., 2001). Substrates used were either MBP (for PKCζ or polypeptides (Crosstide for PKB, S6K, SGK and PRK2; T308tide for PDK1, and Kemptide for PKA). PKA (Sigma) was measured in the presence of 100 μM cAMP. Alternatively, assays were performed in a 96 well format, aliquots spotted on p81 phosphocellulose papers (Whatmann), washed in 0.01% phosphoric acid, dried, and then exposed and analysed using Phospholmager technology (Storm, Molecular Dynamics). Activity measurements were performed in duplicates with less than 10% difference between duplicate pairs. Experiments were repeated at least twice, although most of the experiments were repeated multiple times, with similar results.
PDK1 activity assay was performed in a 20 μl mix containing 50 mM Tris-HCl pH 7.5, 0.05 mg/ml BSA, 0.1% β-mercaptoethanol, 10 mM MgCl2, 100 μM [γ^32P]ATP (5-50 cpm/pmol), 0.003% Brij, 150 ng PDK1, and T308tide (from 0.05 to 1 mM). PDK1 specific activity was approximately 5 U/mg (when measured at 1 mM T308tide). The effect of small compounds on PDK1 was repeated with proteins from different purification batches and with different protein constructs, comprising the full length protein or the catalytic domain alone, with similar results. […] This variability may be due to the PIFtide/compound-stimulated autophosphorylation of the activation loop in certain preparations having less than a 1:1 molar phosphorylation stoichiometry at this site.
PDK1 activity was measured at room temperature using a polypeptide substrate derived from the activation loop phosphorylation site of PKB, T308tide (0.1 mM). […] GST-PDK1 wt was purified in numerous occasions and the maximal activation level of different batches varied between 3 and 8 fold activation with PIFtide or compound 1. Variations in the basal activity and fold activation were also observed in mutants. Therefore, comparisons in the maximal level of activation between mutants should be performed with care. The data shown are from an experiment where PIFtide concentrations were tested between 50 nM and 20 µM and compound 1 concentrations were between 5 μM and 200 μM, in triplicate. AC50 and max. activity were estimated by fitting the data to a hyperbola using Kaleidagraph software. One Unit of PDK1 activity was defined as the amount required to catalyse the phosphorylation of 1 nmol of the T308tide in 1 min.

[2] = target: T2, GST-PDK1 1-556 (Homo sapiens, UniProt O15530); assay: Surface plasmon resonance, GST-PDK1 binding to biotin-PIFtide and displacement by compounds; conditions: competition, pre-incubation with PDK1
T2 construct: made in house; host or cells: HEK293
T2 sequence (O15530 1-556): T1 sequence (O15530 1-556 Q150A) with A150Q
Experimental: FIG. 3—Small compounds displace the binding of PDK1 1-556 to the HM peptide derived from its substrate PRK2, PIFtide. Surface plasmon resonance measurements were carried out on a BiaCore system to measure the interaction between GST-PDK1 and biotin-PIFtide coupled to a streptavidin-coated chip. (A) Direct measurement of PDK1 interaction with biotin-PIFtide. PDK1 was injected at the indicated concentrations (nM). For the following competition experiments, PDK1 45 nM was used. (B) PDK1 interaction with biotin-PIFtide was abolished by pre-incubation with PIFtide. […] The data points represent the maximal response units obtained after 30 s injection in the presence of the indicated concentration of compound. In (A) and (B) the spikes at the start and end of injection have been eliminated for clarity.
Binding of PDK1 to PIFtide was analysed by surface plasmon resonance on a BiaCore 3000 system using a streptavidin-coated Sensor chip (SA) and biotin-PIFtide, as previously described (Biondi et al., 2001). Biotin-PIFtide was bound to the chip to a level of 15 to 25 response units in different experiments. GST-PDK1 bound to biotin-PIFtide with an affinity of 90 nM, in good agreement with previous data obtained using the BiaCore system. For interaction-displacement assays, GST-PDK1 (60 nM) was injected (30 μl/min) in a buffer containing 10 mM HEPES pH 7.5, 150 mM NaCl, 0.005% Tween20, 1 mM DTT and 1% DMSO, in the presence or absence of compounds. GST-PDK1 was pre-incubated with compounds for 1 to 10 minutes before injection into the system, with similar results. Experiments were performed at least twice using different biotin-PIFtide coated chips, with similar results obtained on each occasion.

| AC50 [1] [µM] | Max. activity [1] [U/mg] | activation of PDK1 mutant (in words) [1] | displacement of PDK1 binding to biotin-PIFtide (in words) [2] | Compound |
| --- | --- | --- | --- | --- |
| 55 ± 9 | 1.12 ± 0.06 | still activated | able to disrupt the binding | O=C(O)CSC(CC(=O)c1ccc(Cl)cc1)c1ccccc1 (stereo not drawn) [Compound 1] |
|  |  | completely abolished |  | P-HM-RSK: phosphorylated HM polypeptide of RSK: KGAGGGGFRGFS(P)FVA (KGAGGGGFRGF[pS]FVA) |
| 0.5 ± 0.06 | 1.55 ± 0.06 |  | abolished this interaction | REPRILSEEEQEMFRDFDYIADWC [PIFtide, reference compound] |

| Compound | AC50 [1] [µM] | Max. activity [1] [U/mg] | activation of PDK1 mutant (in words) [1] | displacement of PDK1 binding to biotin-PIFtide (in words) [2] |
| --- | --- | --- | --- | --- |
| COC(=O)CSC(CC(=O)c1ccc(Cl)cc1)c1ccccc1 (stereo not drawn) [Compound 2] |  |  |  | did not displace the binding significantly |
